Data published in ChEMBL document CHEMBL1817626, “The structure-activity relationship of urea derivatives as anti-tuberculosis agents” (Bioorg Med Chem, 2011).
In brackets after ≈: the same amount, converted by molar mass.

Assays:
[1] = target: T1, Epoxide hydrolase B (Mycobacterium tuberculosis) (UniProt P95276); assay: Inhibition of Mycobacterium tuberculosis recombinant EphB expressed in Escherichia coli BL21 using CMNPC as substrate at 10 nM after 30 mins by fluorescent assay relative to control
T1 sequence (whole entry): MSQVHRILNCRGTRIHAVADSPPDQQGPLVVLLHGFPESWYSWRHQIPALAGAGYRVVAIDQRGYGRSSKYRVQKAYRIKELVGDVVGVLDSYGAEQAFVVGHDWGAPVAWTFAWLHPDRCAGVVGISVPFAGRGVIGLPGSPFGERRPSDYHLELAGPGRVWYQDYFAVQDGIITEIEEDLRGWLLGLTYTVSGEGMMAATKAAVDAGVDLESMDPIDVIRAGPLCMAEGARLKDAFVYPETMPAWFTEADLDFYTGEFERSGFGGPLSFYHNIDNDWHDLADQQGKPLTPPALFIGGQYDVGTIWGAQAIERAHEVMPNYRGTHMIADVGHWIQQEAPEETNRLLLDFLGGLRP

[2] = system: Klebsiella pneumoniae; assay: Antibacterial activity against Klebsiella pneumoniae; assay type: functional
[3] = system: Enterococcus faecium; assay: Antibacterial activity against Enterococcus faecium; assay type: functional
[4] = system: Escherichia coli; assay: Antibacterial activity against Escherichia coli K12; assay type: functional; conditions: K-12
[5] = target: T2, Hydrolase, alpha/beta hydrolase fold family (Mycobacterium tuberculosis) (UniProt O69638); assay: Inhibition of Mycobacterium tuberculosis recombinant EphE expressed in Escherichia coli BL21 using CMNPC as substrate at 10 nM after 30 mins by fluorescent assay relative to control
T2 sequence (whole entry): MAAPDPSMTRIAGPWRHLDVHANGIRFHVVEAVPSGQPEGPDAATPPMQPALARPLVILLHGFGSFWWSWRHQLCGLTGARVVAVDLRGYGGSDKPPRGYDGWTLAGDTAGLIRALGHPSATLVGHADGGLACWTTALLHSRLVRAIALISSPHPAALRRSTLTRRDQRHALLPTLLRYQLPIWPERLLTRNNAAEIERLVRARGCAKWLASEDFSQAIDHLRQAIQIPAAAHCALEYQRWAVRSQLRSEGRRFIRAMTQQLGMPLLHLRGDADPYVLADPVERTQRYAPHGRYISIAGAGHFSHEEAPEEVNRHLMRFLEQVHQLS

[6] = system: Mycobacterium tuberculosis; assay: microbe, parasite or virus in culture; conditions: H37Rv, 168 h
[7] = system: Escherichia coli; assay: Antibacterial activity against Escherichia coli […] TolC; assay type: functional
[8] = system: Bacillus anthracis; assay: microbe, parasite or virus in culture
[9] = system: Pseudomonas aeruginosa; assay: Antibacterial activity against Pseudomonas aeruginosa; assay type: functional
[10] = target: T3, Bifunctional epoxide hydrolase 2 (Homo sapiens, UniProt P34913); assay: Inhibition of human recombinant soluble epoxide hydrolase using CMNPC as substrate after 10 mins by fluorescent assay
T3 sequence (P34913 whole entry): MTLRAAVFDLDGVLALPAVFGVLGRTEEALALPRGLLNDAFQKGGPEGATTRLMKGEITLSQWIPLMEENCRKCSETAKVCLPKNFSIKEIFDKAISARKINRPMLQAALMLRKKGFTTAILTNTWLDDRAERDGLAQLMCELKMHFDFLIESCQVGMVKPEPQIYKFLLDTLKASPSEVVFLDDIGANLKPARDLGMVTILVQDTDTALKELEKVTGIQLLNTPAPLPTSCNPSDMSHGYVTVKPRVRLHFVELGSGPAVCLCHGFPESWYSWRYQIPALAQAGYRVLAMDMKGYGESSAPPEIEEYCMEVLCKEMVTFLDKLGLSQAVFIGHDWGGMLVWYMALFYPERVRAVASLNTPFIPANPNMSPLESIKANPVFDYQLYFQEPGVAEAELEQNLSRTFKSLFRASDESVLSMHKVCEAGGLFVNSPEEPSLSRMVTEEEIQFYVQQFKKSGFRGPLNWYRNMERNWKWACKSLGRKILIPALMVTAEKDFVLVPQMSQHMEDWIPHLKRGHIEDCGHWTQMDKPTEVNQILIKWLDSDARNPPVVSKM

[11] = system: Staphylococcus aureus; assay: Antibacterial activity against Staphylococcus aureus; assay type: functional
[12] = system: Mycolicibacterium smegmatis; assay: microbe, parasite or virus in culture; conditions: str. MC2 155, 168 h
[13] = system: Enterococcus faecalis; assay: Antibacterial activity against Enterococcus faecalis; assay type: functional
[14] = system: Vero; assay: Cytotoxicity against african green monkey Vero cells after 72 hrs by MTT assay; assay type: cell-based; conditions: Chlorocebus sabaeus

Compound	inhibition [1] [%]	MIC [2] [µg/mL]	MIC [3] [µg/mL]	MIC [4] [µg/mL]	inhibition [5] [%]	MIC [6] [µg/mL]	MIC [7] [µg/mL]	MIC [8] [µg/mL]	MIC [9] [µg/mL]	IC50 [10] [nM]	MIC [11] [µg/mL]	MIC [12] [µg/mL]	MIC [13] [µg/mL]	IC50 [14] [µg/mL]
CCCCCCCNC(=O)Nc1cccc(C(F)(F)F)c1F	5.5	> 200	> 200	> 200	46.8	3 (≈ 9.37 µM)	> 200	> 200	> 200	0.4	> 200	100 (≈ 312 µM)	> 200	–
CCCCCCCNC(=O)Nc1ccc(F)c(F)c1F	87.5	> 200	> 200	> 200	92.8	6 (≈ 20.8 µM)	6.25 (≈ 21.7 µM)	> 200	> 200	0.4	–	> 200	> 200	130 (≈ 450 µM)
O=C(Nc1ccc(F)c(F)c1F)NC1CCCCCCC1	95.7	> 200	> 200	> 200	91.6	–	3.12 (≈ 10.4 µM)	> 200	> 200	0.4	–	0.8 (≈ 2.66 µM)	> 200	63.4 (≈ 211 µM)
CC1(C)C2CCC(CNC(=O)Nc3ccc(F)c(F)c3F)C1C2 (stereo unspecified)	38.6	> 200	> 200	> 200	103	0.2 (≈ 0.613 µM)	–	1.6 (≈ 4.9 µM)	> 200	0.4	3.13 (≈ 9.59 µM)	1.6 (≈ 4.9 µM)	> 200	15.5 (≈ 47.5 µM)
Fc1ccc(NC(=S)NC2C3CC4CC(C3)CC2C4)c(F)c1F (stereo unspecified)	21.3	> 200	> 200	> 200	35.5	0.8 (≈ 2.35 µM)	3.12 (≈ 9.17 µM)	3.12 (≈ 9.17 µM)	> 200	4.8	> 200	–	> 200	–
NNC(=O)c1ccncc1 [ISONIAZID]	–	–	–	–	–	0.01 (≈ 0.0729 µM)	–	–	–	–	–	–	–	–
O=C(Nc1ccccc1)Nc1ccccc1	–	–	–	–	–	–	–	–	–	390	–	–	–	–
CC(C)CCOc1ccc(NC(=O)Nc2ccc(OCCC(C)C)cc2)cc1	14.6	> 200	> 200	> 200	88.8	200 (≈ 520 µM)	3.12 (≈ 8.11 µM)	> 200	> 200	6.5	> 200	> 200	> 200	–
CN(C(=O)N(C)C1C2CC3CC(C2)CC1C3)c1ccc(F)c(F)c1F (stereo unspecified)	< 1	> 200	> 200	> 200	25.2	12 (≈ 34.1 µM)	12.5 (≈ 35.5 µM)	> 200	> 200	1840	> 200	200 (≈ 568 µM)	> 200	–
N#Cc1ccc(NC(=O)NC2C3CC4CC(C3)CC2C4)cc1 (stereo unspecified)	9	> 200	> 200	–	72.7	0.4 (≈ 1.35 µM)	–	12.5 (≈ 42.3 µM)	> 200	1.1	> 200	12.5 (≈ 42.3 µM)	> 200	7.1 (≈ 24 µM)
CN(C(=O)NC1C2CC3CC(C2)CC1C3)c1ccc(F)c(F)c1F (stereo unspecified)	6.7	> 200	> 200	> 200	22.8	6 (≈ 17.7 µM)	25 (≈ 73.9 µM)	> 200	> 200	38.1	> 200	–	> 200	–
O=C(Nc1ccc(F)c(F)c1F)NC12CC3CC(CC(C3)C1)C2	89.7	> 200	> 200	> 200	92.2	–	> 200	> 200	> 200	–	–	> 200	> 200	726 (≈ 2240 µM)
